Data reported in paper PMC4760439, “Glicentin‐related pancreatic polypeptide inhibits glucose‐stimulated insulin secretion from the isolated pancreas of adult male rats” (Physiological Reports, 2015).
Entries after “also recorded” stand apart in the source; their conditions may differ. Positions of bridges follow the written chain, without caps; N, C: chain ends. No end group written: not given here.

Experiments:
canine pancreas = conditions: local circulation preparation of the canine pancreas; ref Ohneda and Ohneda 1988; cited from earlier work
Excerpt: However, we know of only one study reporting the effects of GRPP on GSIS. […] The precise experimental conditions such as amount of glucose and experimental model used may have influences on the different outcomes; however, the reason for the opposing actions of GRPP between these ...

isolated rat islets = assay: Insulin secretion from isolated rat islets (static incubation); type: cell-based; conditions: hGRPP 1, 10, and 100 nmol L^−1, 1 h, 8 to 9 incubations of 10 islets/well, three experiments, ELISA
Excerpt: (§1) Maximum pancreatic first‐phase insulin secretion in the presence of hormone infusion was contrasted with corresponding control values by unpaired Welch's t‐tests for preplanned comparisons, to allow for unequal variance between groups. Linear mixed‐effects models were fitted by restricted maximum likelihood (LME‐REML) to data obtained from each indicated phase of isolated perfused–organs studies, using S‐PLUS version 8.2 (TIBCO, Spotfire). Calculated P‐values <0.05 are presented in the article and reflect the likelihood ratio between two models, the effect in question (treatment, time, or treatment:time) against the model without the effect in question. Insulin secreted from isolated islets was expressed as a percentage of insulin content and compared using one‐way ANOVA (GraphPad Prism version 6.0: GraphPad Software Inc., San Diego, CA). Cyclic AMP data have been normalized to the response obtained to forskolin and fitted to obtain concentration–response curves using a three‐parameter logistic equation (GraphPad Prism version 6.0: GraphPad Software Inc., San Diego, CA): pEC50 values were obtained from the concentration–response curves and compared using one‐way ANOVA. All data are presented as mean ± SEM of three to four independent experiments.

hGL‐R with RAMP2 = assay: cAMP stimulation in Cos 7 cells transfected with hGL‐R and RAMP2; type: cell-based, human; conditions: preliminary experiment; data not shown
Method: (§2) Cyclic AMP stimulation of transfected Cos 7 cells
(§3) Transfected cells were serum‐deprived in DMEM containing 1 mmol L^−1 IBMX and 0.1% (w/v) bovine serum albumin (BSA) for 30 min. […] Plates were incubated at 37°C for 10 min. […] Media were then aspirated from the wells and reactions terminated by addition of ice‐cold absolute ethanol. Ethanol was then evaporated to dryness and cell extracts re‐suspended in 45 μL cAMP assay buffer: cAMP concentrations were determined using ALPHA‐screen assay kits (Perkin Elmer, Massachusetts) as previously described (Gingell et al. 2010).

[1] = biological target: T1, human glucagon receptor (hGL‐R) (Homo sapiens, UniProt P47871); assay: cAMP stimulation in transfected Cos 7 cells, hGL‐R; type: cell-based; conditions: preliminary experiment, hGL‐R with vector; data not shown
T1 construct: expressed in transfected cells; host or cells: Cos 7 cells
T1 sequence (P47871 26-477): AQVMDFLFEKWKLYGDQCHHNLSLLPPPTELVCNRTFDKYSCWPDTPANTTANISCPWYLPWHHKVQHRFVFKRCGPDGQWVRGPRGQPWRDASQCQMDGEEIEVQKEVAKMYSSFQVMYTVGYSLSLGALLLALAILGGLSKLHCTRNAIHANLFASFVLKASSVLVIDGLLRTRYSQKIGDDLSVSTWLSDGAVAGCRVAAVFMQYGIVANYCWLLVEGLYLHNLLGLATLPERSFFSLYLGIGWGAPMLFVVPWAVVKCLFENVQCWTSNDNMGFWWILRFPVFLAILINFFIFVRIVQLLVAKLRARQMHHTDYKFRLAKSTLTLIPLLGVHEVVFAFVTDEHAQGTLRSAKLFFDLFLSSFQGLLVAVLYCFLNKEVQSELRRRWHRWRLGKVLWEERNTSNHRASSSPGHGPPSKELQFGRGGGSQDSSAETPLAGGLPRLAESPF
Method: Transfection of Cos 7 cells
Cos 7 cells were maintained and subcultured as previously described (Bailey and Hay 2006) and plated at a density of 15,000 cells per well into 96‐well plates 1 day prior to transfection. […] Cyclic AMP assays were performed 48 h after transfection (Bailey and Hay 2006). The human GRPP was obtained from Bachem (Bubendorf, Switzerland).
as §2, §3
as §1, with “Cyclic AMP data have been normalized to the response obtained to forskolin and fitted to obtain concentration–response curves using a three‐parameter logistic equation (GraphPad Prism version 6.0: GraphPad Software Inc., San Diego, CA): pEC50 values were obtained from the concentration–response curves and compared using one‐way ANOVA. All data are presented as mean ± SEM of three to four independent experiments.” left out

pancreatic β‐cell = conditions: ref Metz et al. 1983; Zielmann et al. 1985; Holst et al. 1987; Shima et al. 1988; Goke et al. 1989; Ishizuka et al. 1991; Jia et al. 1995; Vahl et al. 2003; cited from earlier work
[2] = system: plasma insulin and glucagon; conditions: infusion in humans; ref Skamene and Patel 1984; cited from earlier work
Excerpt: (§4) GRPP and GRPP‐LP may inhibit insulin secretion indirectly, perhaps by influencing other islet‐derived hormones known to modulate hormone secretion from the β‐cell.

[3] = system: isolated‐perfused rat pancreas, perifused rat islets, and cultured islets; conditions: ref Norfleet et al. 1975, Fujimoto 1981, Bolaffi et al. 1990; cited from earlier work
Excerpt: as §4

**Q.** With “RSLQDTEEKSRSFSASQADPLSDPDQMNED [hGRPP, human glicentin‐related pancreatic polypeptide, The human GRPP was obtained from Bachem]” as the substance, how does the “Plasma insulin and glucagon, canine pancreas” value (canine pancreas) read?
**A.** slight increases in plasma insulin and decreases in plasma glucagon

**Q.** And the “Basal insulin secretion from islets (vs control)” value (isolated rat islets; 2.8 mmol L^−1 glucose)?
**A.** did not affect insulin secretion; also recorded: did not affect basal or stimulated insulin compared with untreated islets

**Q.** And the “Glucose‐stimulated insulin secretion from islets (vs control)” value (isolated rat islets; 16.7 mmol L^−1 glucose)?
**A.** did not affect insulin secretion; also recorded: did not affect basal or stimulated insulin compared with untreated islets

**Q.** And the “Stimulation of cAMP production at hGL‐R in the presence of RAMP2” value (hGL‐R with RAMP2)?
**A.** did not stimulate cAMP production at hGL‐R alone or in the presence of RAMP2

**Q.** And the “Stimulation of cAMP production at hGL‐R alone” value [1]?
**A.** did not stimulate cAMP production at hGL‐R alone

**Q.** Which “GSIS (action on pancreatic β‐cell)” value (pancreatic β‐cell) does the source give for “glucagon‐like peptide 1 (HAEGTFTSDVSSYLEGQAAKEFIAWLVKGR; ends and bridges not checked; UniProt P01275 98-127, looked up) [GLP‐1, incretin; literature statement, form not specified]” here?
**A.** enhance glucose‐stimulated insulin secretion

**Q.** What does the source list for “somatostatin (AGCKNFFWKTFTSC; disulfide 3-14; ends not checked; UniProt P61278 103-116, looked up) [SST]”?
**A.** Arginine‐stimulated plasma insulin and glucagon levels [2]: decreased arginine‐stimulated plasma insulin and glucagon levels in a dose‐dependent manner; GSIS and arginine‐stimulated glucagon secretion [3]: inhibits GSIS as well as arginine‐stimulated glucagon secretion
